One series relates to MT-2 human T-cells. Nature of the series: Cytotoxicity: inhibition of MT-2 cell growth. The format is cell-based. The settings on record: Homo sapiens, MT2. The source says: The preparation of the analogues 4a-h involved the reaction between 2-bromothiazole 1 with the corresponding 5-amino-2-R-phenol 2, followed by reaction with 4-bromo-2-methyl-2-butene in presence of Cs2CO3 as a base (Scheme 1; see Table 1 for antiviral activities (EC50) and cytotoxicities (IC50) of these compounds, as determined using human MT-2 cells infected with IIIB strain of HIV-1).
See, Ruiz-Caro, supra. and Lin, et al., Biochem. Pharmacol. 1994, 47, 171-174.
With `CC(C)=CCOc1cccc(Nc2nc(C)cs2)c1` [Compound 8a, 4-Methyl-N-(3-(3-methylbut-2-enyloxy)phenyl)thiazol-2-amine], it took 26 µM to reach half-maximal inhibition (IC50).

Regarding `CC(C)=CCOc1cc(Nc2nc(C)cs2)ccc1C` [Compound 8b, 4-Methyl-N-(4-methyl-3-(3-methylbut-2-enyloxy)phenyl)thiazol-2-amine], half-maximal inhibition (IC50) was put at 15 µM.

`COc1ccc(Nc2nc(C)cs2)cc1OCC=C(C)C` [Compound 8c, 4-Methyl-N-(4-methoxy-3-(3-methylbut-2-enyloxy)phenyl)thiazol-2-amine]: the IC50 (as a rule, the concentration needed to halve the response being measured) turned out to be 18 µM.

In the case of `CCOC(=O)c1csc(Nc2cccc(OCC=C(C)C)c2)n1` [Compound 9a, Ethyl 2-(3-(3-methylbut-2-enyloxy)phenylamino)thiazole-4-carboxylate], the IC50 was 21 µM.

As to `CCOC(=O)c1csc(Nc2ccc(C)c(OCC=C(C)C)c2)n1` [Compound 9b, Ethyl 2-(4-methyl-3-(3-methylbut-2-enyloxy)phenylamino)thiazole-4-carboxylate], the IC50 came out at 11 µM.

`CCOC(=O)c1csc(Nc2ccc(OC)c(OCC=C(C)C)c2)n1` [Compound 9c, Ethyl 2-(4-methoxy-3-(3-methylbut-2-enyloxy)phenylamino)thiazole-4-carboxylate] returned an IC50 of 15 µM.

Still in this series, the particulars now being: Homo sapiens, MT2, Table 1a; cytotoxicity, MT-2 cells; read-out: IC50.
As to `CC(C)=CCOc1cc(Nc2ccccn2)ccc1C` [Compound 30b, N-(4-Methyl-3-(3-methylbut-2-enyloxy)phenyl)pyridin-2-amine], the IC50 stood at 35 µM.

As for `CC(C)=CCOc1cc(Nc2ccccn2)ccc1Cl` [Compound 30d, N-(4-Chloro-3-(3-methylbut-2-enyloxy)phenyl)pyridin-2-amine], the IC50 was 15 µM.

Regarding `CC(C)=CCOc1cc(Nc2ccccn2)ccc1C#N` [Compound 30h, N-(4-Cyano-3-(3-methylbut-2-enyloxy)phenyl)pyridin-2-amine], the IC50 is 0.29 µM.

For the compound `CC(C)=CCOc1cc(Nc2ccnc(N)n2)ccc1C` [Compound 45b, N^4-(4-Methyl-3-(3-methylbut-2-enyloxy)phenyl)pyrimidin-2,4-diamine], the IC50 came to 0.6 µM.

On to `CC(C)=CCOc1cc(Nc2ccnc(N)n2)ccc1Cl` [Compound 45d, N^4-(4-Chloro-3-(3-methylbut-2-enyloxy)phenyl)pyrimidin-2,4-diamine], for which the IC50 was 2 µM.

Still in this series, the particulars now being: Homo sapiens, MT2, Table 3; cytotoxicity, MT-2 cells; read-out: IC50.
Consider `CC(C)=CC(C)Oc1cc(Nc2nccs2)ccc1Cl` (stereo not shown) [Compound 19d, N-(4-Chloro-3-(4-methylpent-3-en-2-yloxy)phenyl)thiazol-2-amine], for which the IC50 worked out at 22 µM.

Turning to `N#Cc1ccc(Nc2nccs2)cc1OC1=CCCC1` [Compound 20h, N-(4-Cyano-3-(cyclopentenyloxy)phenyl)thiazol-2-amine], the IC50 turned out to be 1.7 µM.

With `CC1=C(COc2cc(Nc3nccs3)ccc2Cl)CCC1` [Compound 21d, N-(4-Chloro-3-((2-methylcyclopent-1-enyl)methoxy)phenyl)thiazol-2-amine], the IC50 is 2.5 µM.

In the case of `Clc1ccc(Nc2nccs2)cc1OCC1CCCCC1` [Compound 22d, N-(4-Chloro-3-(cyclohexylmethoxy)phenyl)thiazol-2-amine], the IC50 came to 12 µM.

For the compound `CCCCCCCOc1cc(Nc2nccs2)ccc1Cl` [Compound 23d, N-(4-Chloro-3-(hexylmethoxy)phenyl)thiazol-2-amine], the IC50 stood at 15 µM.

Staying with this series, now noted: Table 1; cytotoxicity, MT-2 cells; read-out: IC50.
`CCCc1ccc(Nc2nccs2)cc1OCC=C(C)C` [Compound 4f, N-(4-propyl-3-(3-methylbut-2-enyloxy)phenylthiazol)-2-amine]: the IC50 is 31 µM.

Still in this series, the particulars now being: Table 1B; for 50% inhibition of MT-2 cell growth; triplicate samples.
On to `CC(C)=CCOc1cc(Nc2ncnc(Cl)n2)ccc1Cl` [Compound 7a], for which the midpoint of cytotoxicity, the CC50, lay at 45 µM.

`COc1nc(Cl)nc(Nc2ccc(Cl)c(OCC=C(C)C)c2)n1` [Compound 7f]: the CC50 – broadly, the concentration that lowers cell viability or growth by half – came to 26 µM.

On to `COCc1ccnc(Nc2ccc(Cl)c(OCC=C(C)C)c2)n1` [Compound 9l], for which the CC50 is more than 25 µM.

On to `CC(C)=CCOc1cc(Nc2nccc(CO)n2)ccc1Cl` [Compound 9m], for which the CC50 stood at 0.22 µM.

The series is the same for the next values; noted with them: Table 2b; MT-2 cells.
For the compound `COc1ccnc(Nc2ccc(Cl)c(Oc3ccccc3C)c2)n1` [Compound 11e], it took 13 µM to reach half-maximal cytotoxicity (CC50).

The values are drawn from patent US9018209B2, “Compounds and methods for the treatment of viruses and cancer” (Yale University, priority 2005, dated 2015).
